Our source for the IC50 values is ChEMBL document CHEMBL1141894, “Synthesis and biological properties of novel sphingosine derivatives” (Bioorg Med Chem Lett, 2005).

This assay concerns HL-60. In words: Inhibitory concentration against [Ca2+] ion increase in HL60 cell induced by natural sphingosine-1-phosphate. The note with it: Homo sapiens. The format is functional, cell-based.
Turning to `N[C@@H](COP(=O)(O)O)[C@@H](O)c1ccccc1`, it took 179 nM to reach half-maximal inhibition (IC50).
As to `N[C@@H](COP(=O)(O)O)[C@@H](O)c1ccc([N+](=O)[O-])cc1`, the IC50 – broadly, the concentration that gives 50% inhibition – was determined as 56 nM.
For `N[C@@H](COP(=O)(O)O)[C@@H](O)/C=C/c1ccccc1`, the IC50 worked out at 37 nM.
Molecule `CSc1ccc([C@H](O)[C@@H](N)COP(=O)(O)O)cc1` yielded an IC50 of 15 nM.
For the molecule `CCCCCCCCCCCCC/C=C/[C@H](O)[C@@H](N)COP(=O)(O)O`, the IC50 was 31 nM.
For `CCCCCCCCCC/C=C/[C@H](O)[C@@H](N)COP(=O)(O)O`, the IC50 amounted to 15 nM. This IC50 is about 2.1-fold lower than that of the molecule before.
Regarding `N[C@@H](CBr)[C@@H](O)c1ccccc1`, half-maximal inhibition (IC50) was put at 71 nM.
With `CSc1ccc([C@H](O)[C@@H](N)CBr)cc1`, the IC50 was 18 nM.
